# Marks after values point to notes of the source that are not given here.
# Experiments:
# [1] = Tolerance to artificial gastric juice; assay type: physicochemical; conditions: artificial gastric juice pH 2.0, 37° C., at 240 min
# Method: Gastric juice ([…], 2 g/L NaCl, and 3.2 g/L pepsin, pH 2.0) and intestinal juice (6.8 g/L KH2 PO4, 10 g/L trypsin, and 0.1M NaOH, pH 8.0) were prepared, and then the gastric juice and the intestinal juice were filtered and sterilized using 0.22 μm sterile filter. […] The bacterial cells were washed twice with sterile saline and resuspended in 5 mL saline. A bacterial solution was mixed well with the sterile artificial gastric or intestinal juice in 1:1 (v/v). The mixture was shaken well, and then was placed in a constant-temperature incubator and culture was performed at 37° C.
# [2] = test system: APP/PS1 double transgenic mice; assay: Alzheimer's disease in APP/PS1 double transgenic mice; assay type: in vivo; conditions: 1*10^9 CFU/mouse/d 30 d
# [3] = test system: APP/PS1 double transgenic mice; assay: as above; assay type: in vivo
# Description: 20 12-month-old APP/PS1 double transgenic mice (Hangzhou Ziyuan Experimental Animal Technology Co., Ltd., batch MJ0324-058) were randomly divided into two groups: an APP group and an APP+AKK group, with 10 mice in each group. Another 10 littermate wild-type C57 BL/6J mice were taken as blank, which served as a WT group. All mice were given intragastric administration and injection for 30 d at 12-month age (see Table 7 for intragastric administration conditions). After all the experiments ended, blood was collected from the orbital veins of the mice. The mice were sacrificed by cervical dislocation. Part of brain tissue, liver tissue and colon tissue of the mice were taken and placed in 4% paraformaldehyde, and the remaining tissue was placed in an ultra-low temperature freezer at −80° C. for storage.
# DDW: Double distilled water.
# After administration, a Morris water maze experiment of a 4-day duration was conducted firstly. The water maze consists of a circular pool (with a diameter of 120 cm) and is evenly divided into four quadrants. During the experiment, the mice were moved into a laboratory two hours in advance to acquaint themselves with the environment. The water temperature was adjusted to around 21° C. to 22° C., and then milk was poured into the pool to make the water milky white. D1 to D3 were a training period, during which the mice were gently placed into the water from first, second, third, and fourth quadrants with their faces towards the direction of the pool wall reminders. Swimming trajectories at 1 min were recorded. […] Each mouse was trained once per day per quadrant for 3 consecutive days. D4 was an experimental period, during which a quadrant was randomly selected for each mouse and then the mice were placed in the pool. The time required to find the platform within 60 s, i.e., escape latency, was recorded, and the swimming trajectory of each mouse was recorded with a video acquisition system. If the mouse fail to find the platform within 60 s after entering the water, the escape latency is recorded as 60 s.
# A hippocampus was homogenized in 1 mL RIPA (Thermofisher, Waltham, MA, USA) and 10 μL PMSF (Thermofisher), and the homogenized hippocampus was centrifuged at 4° C. at 12000×g for 5 min. Proteins were quantified using a BCA protein assay kit (Thermofisher). A protein sample was mixed with a sample buffer (Thermofisher) in a ratio of 4:1, and the mixture was heated at 95° C. for 5 min. Then the sample was dispensed into gel pores of SDS-PAGE gel and the gel was run at 100 V. Strips on SDS-PAGE gel were transferred onto a PVFD membrane. The PVDF membrane was sealed with 5% skim milk for 1 h, and then the stripes were incubated overnight with a primary antibody (Thermofisher) at 4° C. An antibody (Thermofisher) was added after the membrane was washed and the incubation was performed for 1 h. Images on iBright™ (Thermofisher) were obtained after chemiluminescence was performed using a western ECL substrate (Thermofisher), where the images were used for subsequent analysis.
# The hippocampus was taken and homogenized with PBS, and then liquid supernatant was drawn for the experiment. The levels of IL-4 (interleukin-4, Nanjing Jiancheng Biological Engineering Research Institute, product number: H005-1-2), IL-10 (interleukin-10, Nanjing Jiancheng Biological Engineering Research Institute, product number: H009-1-2), CCL2 (chemokine ligand 2, Nanjing Jiancheng Biological Engineering Research Institute, product number: H318-1) and CXCL1 (CXC chemokine ligand 1, Nanjing Jiancheng Biological Engineering Research Institute, product number: H306-1) in the hippocampus were tested by the instruction of the ELISA kit.
# [4] = Auto-aggregation; assay type: physicochemical; conditions: 37° C., at 20 h
# Method: The absorbance (OD600 nm) was adjusted to 0.5. Then the bacterial suspension was cultured at 37° C., and its absorbance at 600 nm at 4, 8, 12, 16, 20, and 24 h was measured. The auto-aggregation percentage was calculated using the following formula: […]
# [5] = test system: mice; assay: Subchronic toxicity experiment, 90 d; assay type: in vivo
# Method: Animals were randomly divided into four groups: group 1 (half male and half female) (saline, 0 CFU/kg. bw/d), group 2 (half male and half female) (9.2×10^8 CFU/kg. bw/d), group 3 (half female and half male) ([…]), and group 4 (half male and half female) (92×10^8 CFU/kg. bw/d). A new bacterial suspension was prepared per day. The bacterial suspension was intragastrically administrated orally for 90 consecutive days at a dosage volume of 5 mL/kg. bw. Clinical signs were recorded per day, and detailed clinical observation was conducted once a week. The body weight, the food consumption, and the water intake were recorded once a week. At the end of the experimental period, blood samples were collected for hematological and serum biochemical analysis (refer to Embodiment 4). An autopsy was conducted on all animals, and the weight of main organs was recorded. A histopathological examination was performed on the major organs and tissue of all the animals in each group (refer to Embodiment 4). […]
# Determination of blood glucose: In a certain time interval after administration, at 0, 15, 30, 60, 90 and 120 min, the tail venous blood of the mouse was taken, and the blood glucose level of the mouse was measured using a blood glucose meter measurement method. […]
# [6] = 1*10^9 CFU/mouse/d intragastric 30 d, vs APP group
# [7] = APP+AKK group compared with APP group
substance,measurement,setting,value
Akkermansia muciniphila [AKK PROBIO],survival rate in gastric juice,[1],around 85%
same,Serum IL-4,"[2]; APP group 35.00, WT 106.52",70.42 ± 3.40^c
same,Serum CCL2,"[2]; APP group 80.13, WT 59.07",67.74 ± 1.51^b
same,Serum CXCL1,"[2]; APP group 168.91, WT 14.87",56.40 ± 2.88^b
same,Serum IL-10,"[2]; APP group 565.36, WT 2779.61",2133.04 ± 18947^b
same,escape latency (Morris water maze),[3]; [6],shortened
same,path to finding the platform (Morris water maze),[3]; [6],significantly shortened
same,levels of CXCL1 and CCL2,[3]; [7],declining trend
same,levels of IL-4 and IL-10,[3]; [7],rising trend
same,Hippocampus IL-4,"[3]; APP/PS1 mice, 1*10^9 CFU/mouse/d 30 d, APP group 54.73, WT 410.91",210.90 ± 19.77^c
same,Hippocampus CCL2,"[3]; APP/PS1 mice, 1*10^9 CFU/mouse/d 30 d, APP group 159.11, WT 103.32",123.20 ± 0.50^b
same,Hippocampus Aβ,"[3]; APP/PS1 mice, 1*10^9 CFU/mouse/d 30 d, APP group 348.45, WT 59.23",185.15 ± 9.07^b
same,Hippocampus IL-10,"[3]; APP/PS1 mice, 1*10^9 CFU/mouse/d 30 d, APP group 1035.86, WT 3373.80",2516.88 ± 91.80^c
same,Hippocampus CXCL1,"[3]; APP/PS1 mice, 1*10^9 CFU/mouse/d 30 d, APP group 1217.20, WT 355.37",653.77 ± 15.44^b
same,auto-aggregation,[4],around 52%
same,pathological injury to the livers and kidneys,[5]; 90 d,no significant pathological injury
same,weight of major organs,"[5]; 90 d, heart, liver, spleen, kidneys, thymus, brain, testes, lungs, pancreas, stomach, intestine, vs control group",substantially no significant difference
same,changes of blood glucose per week,"[5]; 90 d, medium-dosage group (27.6×10^8) vs control saline group",significant difference
same,changes of blood glucose per week,"[5]; 90 d, the other groups (low, high dosage) vs control group",no significant difference
same,level of the bile acid both in serum and liver,"[5]; 90 d, the other groups vs control group",no significant difference
same,activity of glutamic oxalacetic transaminase in both serum and liver,"[5]; 90 d, vs control group",no significant difference
same,activity of glutamic pyruvate transaminase in both serum and liver,"[5]; 90 d, vs control group",no significant difference
same,blood glucose regulation ability (glucose tolerance and insulin tolerance),"[5]; 90 d, vs control group",no significant difference
same,concentration of blood urea nitrogen in serum,"[5]; 90 d, vs control group",no significant difference
same,content of creatinine in serum,"[5]; 90 d, vs control group",no significant difference
same,content of total protein in both serum and liver,"[5]; 90 d, vs control group",no significant difference
same,level of glucose in both serum and liver,"[5]; 90 d, vs control group",no significant difference
same,level of the cholesterol in both liver and serum,"[5]; 90 d, vs control group",no significant difference
same,level of the triglyceride in both liver and serum,"[5]; 90 d, vs control group",no significant difference
same,changes of body weight per week,"[5]; 90 d, vs control saline group",no significant difference
same,changes of food intake per week,"[5]; 90 d, vs control saline group",no significant difference
same,various blood indicators,"[5]; 90 d, vs control saline group",no significant difference
same,death,"[5]; intragastric 90 consecutive days, high, medium, low dosage (92×10^8, 27.6×10^8, 9.2×10^8 CFU/kg. bw/d)",no death occurs

# — patent US12606795B2 (Thankcome Biological Science and Technology (SuZhou) Co., …, priority 2023, dated 2026)
